Key:
[1] = tested on: horse thrombin; experiment: Thrombin time (clotting of human citrate plasma on addition of thrombin reagent, ball coagulometer); assay type: biochemical, human plasma; horse thrombin; conditions: 37° C., difference to control (ca. 24 sec); for TT0.5 (thrombin time, difference to the control): 0.5 μM in human plasma; for TT5 (thrombin time, difference to the control): 5 μM in human plasma
Procedure: A conventional test in clinical coagulation diagnostics is the thrombin time. This parameter measures the action of thrombin on fibrinogen and the formation of clots. Inhibitors of thrombin result in an extended thrombin time.
In order to obtain plasma 9 parts of fresh blood from healthy donors was mixed with one part of sodium citrate solution (0.11 mol/l) and it was centrifuged for 10 minutes at room temperature at ca. 3000 r.p.m. The plasma was removed by pipette and can be stored at room temperature for ca. 8 hours.
200 μl citrate plasma was incubated for 2 minutes at 37° C. in a ball coagulometer (KC10 from the Amelung Company). 10 μl dimethylsulfoxide (DMSO) or a solution of the active substance in DMSO was added to 190 μl pre-heated thrombin reagent (Boehringer Mannheim GmbH; contains ca. 3 U/ml horse thrombin and 0.0125M Ca^++). On addition of 200 μl of this solution to the plasma a stopwatch was started and the time at which coagulation starts was determined.
The measured thrombin times in seconds are given in the following table as a difference to the control. The concentrations of the active substances in human plasma were 5 μM (TT5) and 0.5 μM (TT0.5).

[2] = target: T1, human α thrombin (Homo sapiens, UniProt P00734); experiment: Thrombin inhibition, kinetic measurement with substrate H-(D)-Phe-Pro-Arg-pNA; assay type: biochemical; conditions: 0.1M phosphate buffer, 0.2M sodium chloride, 0.5% polyethylene glycol 6000, pH=7.5, 25° C.
T1 construct: human α thrombin; purchased Sigma
Procedure: The kinetic measurements were carried out in 0.1M phosphate buffer that contained 0.2M sodium chloride and 0.5% polyethylene glycol 6000 at a pH=7.5 and 25° C. with the substrate H-(D)-Phe-Pro-Arg-pNA; Kabi and human α thrombin (Sigma, specific activity=2150 NIH-units/mg) in polystyrene semi-microcuvettes in a total volume of 1 ml.
In a preliminary test each active substance was determined as to whether it inhibits thrombin rapidly or slowly. For this the reaction was firstly started by adding 0.03 NIH units thrombin to a 100 μM solution of the substrate and the active substance. In a second experiment, substrate was added to a solution of thrombin and the active substance which had been incubated for 5 minutes. The increase in the concentration of p-nitroaniline with time was monitored spectroscopically (UV-VIS spectrophotometer Lambda-2 from the Perkin-Elmer Company) at 405 nm for 12 min.
Since the measured curves obtained in both experiments were linear and parallel, the active substances of the following table are rapid thrombin inhibitors.
The inhibition constants Ki were then determined as follows. The substrate was used at concentrations of 100 μM, 50 μM, 30 μM, 20 μM and at each substrate concentration a measurement was carried out without inhibitor and three measurements were carried out in the presence of various concentrations of the inhibitors listed in the following table. The reactions were started by adding thrombin. The increase in absorbance at 405 nm due to the formation of p-nitroaniline was monitored over a time period of 12 minutes. Measurement points (time versus absorbance) were transferred to a PC at intervals of 20 seconds. The rates VO (change in absorbance per second; measurements without inhibitor) and Vi (measurements with inhibitor) were determined by linear regression. Only that part of the measurement was used in which the substrate concentration had decreased by less than 15%. Km ' and Vmax were determined from a measurement series (constant inhibitor concentration, variable substrate concentrations) by a non-linear fit to the equation [formula]
Finally Ki was calculated from the entire series of measurements by a non-linear fit to the equation [formula]
The Michaelis constant Km was 3.8±2 μm in all measurements.
The inhibition constants Ki of the active substances are stated in the following table in units of μM.

Compound	Ki [2] [nM]	TT0.5 (thrombin time, difference to the control) [1] [s]	TT5 (thrombin time, difference to the control) [1] [s]
Cc1cc(OCCNc2ccncc2)cc(N(CP(C)(C)=O)S(=O)(=O)c2ccccc2)c1 [Example 1, N-(Dimethyloxophosphinylmethyl)-N-{3-methyl-5-[2-(pyridin-4-ylamino)-ethoxyl]-phenyl}-benzene sulfonamide]	100	33	175
COc1ccccc1S(=O)(=O)N(CP(C)(C)=O)c1cc(C)cc(OCCNc2ccncc2)c1 [Example 2, N-(Dimethyloxophosphinvlmethyl)-N-{3-methyl-5-[2-(pyridin-4-ylamino)-ethoxyl]-phenyl}-2-methoxy-benzene-sulfonamide]	8	115	300
CCCCOc1ccccc1S(=O)(=O)N(CP(C)(C)=O)c1cc(C)cc(OCCNc2ccncc2)c1 [Example 3, N-(Dimethyloxophosphinylmethyl)-N-{3-methyl-5-[2-(pyridin-4-ylamino)-ethoxyl]-phenyl}-2-butoxy-benzene-sulfonamide]	4	50	300
CCCCCCOc1ccccc1S(=O)(=O)N(CP(C)(C)=O)c1cc(C)cc(OCCNc2ccncc2)c1 [Example 4, N-(Dimethyloxophosphinylmethyl)-N-{3-methyl-5-[2-(pyridin-4-ylamino)-ethoxyl]-phenyl}-2-hexyloxy-benzene-sulfonamide]	12	11	113

The next lines start with results.

Ki [2] [nM]	Compound	TT0.5 (thrombin time, difference to the control) [1] [s]	TT5 (thrombin time, difference to the control) [1] [s]
28	CCCOc1ccccc1S(=O)(=O)N(CP(C)(C)=O)c1cc(C)cc(OCCNc2ccnnc2)c1 [Example 6]	18	122
60	CCOc1ccccc1S(=O)(=O)N(CP(C)(C)=O)c1cc(C)cc(OCCNc2ccnnc2)c1 [Example 7]	14	109
35	Cc1cc(OCCNc2ccnnc2)cc(N(CP(C)(C)=O)S(=O)(=O)c2ccccc2OC(C)C)c1 [Example 8]	47	180

Reference: US5824679A, “Phosphanoxides--preparation and use” (Boehringer Mannheim GmbH, priority 1994, dated 1998)
